Measurements as given in ChEMBL document CHEMBL1133824, “Amino acid phosphoramidate nucleosides: potential ADEPT/GDEPT substrates” (2001).

How the values were obtained:
Type in all cases: functional
[1] = system: CCRF-CEM; experiment: In vitro concentration required for 50% inhibition of growth of human leukemia cell line CCRF-CEM without hPAP (0.2 unit/mL)
[2] = Ratio of GI50 without hPAP/ GI50 with hPAP
[3] = system: CCRF-CEM; experiment: In vitro concentration required for 50% inhibition of growth of human leukemia cell line CCRF-CEM with hPAP (0.2 unit/mL)

| SMILES | GI50 [1] [nM] | Ratio [2] | GI50 [3] [nM] |
| --- | --- | --- | --- |
| COC(=O)[C@H](Cc1c[nH]c2ccccc12)NP(=O)(O)OCC1OC(n2cc(F)c(=O)[nH]c2=O)CC1O (some centres not stated) | 4830 | 5370 | 0.9 |
| COC(=O)[C@H](Cc1ccccc1)NP(=O)(O)OCC1OC(n2cc(F)c(=O)[nH]c2=O)CC1O (some centres not stated) | 463 | 578 | 0.8 |
| Nc1ccn([C@@H]2O[C@H](CO)[C@@H](O)[C@@H]2O)c(=O)n1 [CYTARABINE] | 90 | 0.902 | 99.8 |
| O=c1[nH]c(=O)n([C@H]2C[C@H](O)[C@@H](CO)O2)cc1F [FLOXURIDINE] | 2 | 3.33 | 0.6 |
